From patent US11566029B2, “Pyrazolo[1,5-a]pyrimidine-5,7-diamine compounds as CDK inhibitors and their therapeutic use” (CANCER RESEARCH TECHNOLOGY LIMITED, priority 2014, dated 2023)
Where a name gives a salt, the structure may show the parent alone.

Tests used:
[1] = molecular target: T1, CDK2/cycA1 (Homo sapiens, UniProt P24941); experiment: In vitro kinase assay (PKLight luciferase ATP readout), CDK2; assay type: biochemical; settings: ATP at Km; read-out: In vitro Kinase Inhibition CDK2 IC50
T1 construct: purchased ProQinase GmbH
Method: (§1) Purified recombinant CDK1/cycA1, CDK2/cycA1, CDK4/cycD1, CDK5/p35NCK, CDK6/cycD1, CDK7/CycH/MAT1, and CDK9/CycT1 were purchased from ProQinase GmbH. Kinase assays were performed according to manufacturer's protocols. Rb-CTF (ProQinase GmbH) (cat number: 0040-0000-6) was used as the kinase substrate for CDK1, CDK2, CDK4, and CDK6 kinases. […] A luciferase assay (PKLight assay; Cambrex) was used to determine ATP remaining at the end of the kinase reaction, which provides a measure of kinase activity, according to the manufacturer's protocols.
(§2) Kinase assays were carried out by incubation of increasing amounts of test compound with purified recombinant CDK-Cyclin complex, followed by measurement of free ATP remaining in the reaction using the luciferase assay kit (PKLight, Cambrex) which therefore provided a measure of inhibition for the specific CDK.
(§3) 5 μL of 1× kinase buffer (Cell Signalling Technologies) was mixed with 200 ng CDK1, 200 ng CDK2, 50 ng CDK4, 100 ng CDK5, or 200 ng CDK6 with 5 μg Rb-CTF and 300 ng CDK7 or 200 ng CDK9 with 500 μM RNA Poll II CTD peptide. […] The mixture was incubated at 30° C. for 30 minutes. The reaction is stopped with 20 μL of Stop Solution (provided in the PKLight kit) for 10 minutes at room temperature. Then 40 μL of the luciferase mix was added to the reaction mixture which was incubated for a further 10 minutes at room temperature and measured using the Tecan Infinite 2000 plate reader. GraphPad Prism Software was used to generate standard curve and determine the IC50's for each CDK.

[2] = test system: MCF7 cells; experiment: Cell growth inhibition assay (sulforhodamine B), MCF7; assay type: cell-based; settings: Homo sapiens, 72 hours, SRB assay, read-out: Growth Inhibition, GI50 MCF7
Method: (§4) All cells were purchased from the American Type Culture Collection (ATCC) and MCF7 cells were routinely cultured in Dulbecco's Modified Eagle's Medium (DMEM) supplemented with 10% fetal calf serum (FCS) (First Link) and HCT116 cells were routinely cultured in Roswell Park Memorial Instititute Medium (RPMI) supplemented with 10% FCS. Cell growth was assessed using a known sulforhodamine B assay (see, e.g., Skehan et al., 1990).
(§5) MCF-7 cells purchased from ATCC (USA) were routinely passaged in DMEM, supplemented with 10% FCS and HCT116 cells purchased from ATCC (USA) were routinely passaged in RPMI supplemented with 10% FCS and kept in a 37° C. incubator with 5% CO2. The growth assay for both cell lines was performed in the appropriate media using the exact same protocol as described here. For the growth assay, 5000 cells were seeded into each well of 96-well plates in DMEM containing 10% FCS. Test compounds prepared in DMSO were added to the medium at concentrations ranging from 0.00038-100 μM. The cells were incubated for a further 72 hours, at which time they were fixed by the addition of 100 μL/well of ice-cold 40% trichloroacetic acid (TCA). The plates were left for 1 hour at 4° C., washed in water and 100 μL of 0.4% (w/v) sulforhodamine (SRB; Sigma-Aldrich, UK) prepared in 1% acetic acid was added. Plates were washed in 1% acetic acid to remove excess SRB reagent, air dried, and bound dye was solubilized by the addition of 100 μL of 10 mM tris base. The plates were read at 492 nm using a plate reader.

[3] = molecular target: T2, CDK7/CycH/MAT1 (Homo sapiens, UniProt P50613); experiment: In vitro kinase assay (PKLight luciferase ATP readout), CDK7; assay type: biochemical; settings: for IC50: ATP at Km, read-out: In vitro Kinase Inhibition CDK7 IC50; for Selectivity CDK1/CDK7: ratio of CDK1 IC50 to CDK7 IC50; for Selectivity CDK2/CDK7: ratio of CDK2 IC50 to CDK7 IC50
T2 construct: purchased ProQinase GmbH
T2 sequence (P50613 whole entry): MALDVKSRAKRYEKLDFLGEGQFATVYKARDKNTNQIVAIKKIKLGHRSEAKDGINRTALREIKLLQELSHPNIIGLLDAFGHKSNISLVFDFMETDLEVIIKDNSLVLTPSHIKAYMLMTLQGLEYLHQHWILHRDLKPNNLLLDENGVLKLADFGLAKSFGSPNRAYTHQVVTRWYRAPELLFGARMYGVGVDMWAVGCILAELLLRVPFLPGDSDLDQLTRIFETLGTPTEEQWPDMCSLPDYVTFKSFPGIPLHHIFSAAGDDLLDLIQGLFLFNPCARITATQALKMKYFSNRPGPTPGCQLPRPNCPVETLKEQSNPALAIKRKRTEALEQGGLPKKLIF
T2 sequence (P51946 whole entry partner): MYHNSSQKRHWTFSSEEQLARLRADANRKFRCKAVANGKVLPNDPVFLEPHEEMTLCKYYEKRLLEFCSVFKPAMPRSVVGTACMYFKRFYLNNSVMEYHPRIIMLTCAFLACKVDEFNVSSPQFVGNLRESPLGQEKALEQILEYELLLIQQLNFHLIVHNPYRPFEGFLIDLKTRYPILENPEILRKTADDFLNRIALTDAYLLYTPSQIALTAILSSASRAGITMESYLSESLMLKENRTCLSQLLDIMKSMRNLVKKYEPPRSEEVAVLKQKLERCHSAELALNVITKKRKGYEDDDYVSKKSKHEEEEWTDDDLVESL
T2 sequence (P51948 whole entry partner): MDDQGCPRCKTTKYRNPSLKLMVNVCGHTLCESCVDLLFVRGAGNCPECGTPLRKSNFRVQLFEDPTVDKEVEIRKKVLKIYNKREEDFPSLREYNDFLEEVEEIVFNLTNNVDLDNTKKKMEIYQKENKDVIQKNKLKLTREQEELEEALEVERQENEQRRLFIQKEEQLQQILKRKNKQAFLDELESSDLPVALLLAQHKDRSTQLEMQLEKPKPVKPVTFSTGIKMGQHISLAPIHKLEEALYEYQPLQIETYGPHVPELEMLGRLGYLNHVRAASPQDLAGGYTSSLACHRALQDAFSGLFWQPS
Method: as §1, §2, §3

[4] = test system: HCT116 cells; experiment: Cell growth inhibition assay (sulforhodamine B), HCT116; assay type: cell-based; settings: Homo sapiens, HCT-116; 72 hours, SRB assay; read-out: Growth Inhibition, GI50 HCT116
Method: as §4, §5

[5] = molecular target: T3, CDK1/cycA1 (Homo sapiens, UniProt P06493); experiment: In vitro kinase assay (PKLight luciferase ATP readout), CDK1; assay type: biochemical; settings: ATP at Km; read-out: In vitro Kinase Inhibition CDK1 IC50
T3 construct: purchased ProQinase GmbH
Method: as §1, §2, §3

Compound	IC50 [1] [nM]	GI50 [2] [nM]	IC50 [3] [nM]	Selectivity CDK1/CDK7 [3] [fold]	Selectivity CDK2/CDK7 [3] [fold]	GI50 [4] [nM]	IC50 [5] [nM]
CC(C)c1cnn2c(NCc3ccccc3)cc(NC[C@]3(O)CCNC[C@H]3O)nc12 (racemic) [PPDA-002, (3R,4R)-4-((7-(Benzylamino)-3-iso-propyl-pyrazolo[1,5-a]pyrimidin-5-ylamino)methyl)piperidine-3,4-diol hydrochloride]	2030	1500	18	77	113	5100	1380
CC(C)c1cnn2c(NCC3CCCCC3)cc(NC[C@]3(O)CCNC[C@H]3O)nc12 (racemic) [PPDA-014]	481	45600	975	8.9	0.5	53500	8680
CC(C)c1cnn2c(NCc3ccccc3)cc(NCC3(CO)CCNC3)nc12 (racemic) [PPDA-018, (3-((7-(Benzylamino)-3-iso-propylpyrazolo [1,5-a]pyrimidin-5ylamino)methyl)pyrrolidin-3-yl)methanol hydrochloride]	1	100	14	2.9	0.1	900	41
CC(C)c1cnn2c(NCC3CCCCC3)cc(NC[C@@]3(CO)CCNC3)nc12 (racemic) [PPDA-019]	9	300	29	2.8	0.3	400	80
CC(C)c1cnn2c(NCc3ccncc3)cc(NC[C@@]3(CO)CCNC3)nc12 (racemic) [PPDA-020]	22	600	44	10	0.5	1500	441
CC(C)c1cnn2c(NCc3ccccc3Cl)cc(NC[C@@]3(CO)CCNC3)nc12 (racemic) [PPDA-021]	22	200	81	2.2	0.3	1200	177
CC(C)c1cnn2c(NCc3ccccc3)cc(N[C@H]3CNCC3O)nc12 (stereo in doubt) [PPDA-015, (3S,4S)-4-(7-(Benzylamino)-3-iso-propyl-pyrazolo[1,5-a]pyrimidin-5-ylamino)-pyrrolidin-3-ol hydrochloride]	1290	4100	27	146	48	12700	3950
CC(C)c1cnn2c(NCc3ccncc3)cc(NC[C@H]3CCNC[C@@H]3O)nc12 [PPDA-003, (3R,4R)-4-((3-iso-Propyl-7-(pyridin-4-ylmethylamino)pyrazolo[1,5-a]pyrimidin-5-ylamino)methyl)piperidin-3-ol hydrochloride]	114	–	47	41	2.5	–	1910
CC(C)c1cnn2c(NCC3CCCCC3)cc(NC[C@H]3CCNC[C@@H]3O)nc12 [PPDA-004]	1290	2700	940	1.9	1.4	2500	1820
CC(C)c1cnn2c(Nc3ccc(S(=O)(=O)N(C)C)cc3)cc(NC[C@H]3CCNC[C@@H]3O)nc12 [PPDA-005]	38	4220	111	1.9	0.3	7200	213
CC(C)c1cnn2c(NC3CCN(S(=O)(=O)c4ccc(F)cc4)CC3)cc(NC[C@H]3CCNC[C@@H]3O)nc12 [PPDA-006]	178	8400	40	10	4.5	10000	405
CC(C)c1cnn2c(Nc3ccc(N4CCN(C)CC4)cc3)cc(NC[C@H]3CCNC[C@@H]3O)nc12 [PPDA-007, (3R,4R)-4-((3-iso-Propyl-7-(4-(4-methylpiperazin-1-yl)phenylamino)pyrazolo[1,5-a]pyrimidin-5-ylamino)methyl)piperidin-3-ol hydrochloride]	503	2100	461	2.5	1.1	4100	1150
CC(C)c1cnn2c(Nc3csc4ccccc34)cc(NC[C@H]3CCNC[C@@H]3O)nc12 [PPDA-008]	42	3100	120	25	0.4	5100	2950
CC(C)c1cnn2c(NC(=O)C3CCNCC3)cc(NC[C@H]3CCNC[C@@H]3O)nc12 [PPDA-009, N-(5-((((3R,4R)-3-Hydroxypiperidin-4-yl)methyl)amino)-3-iso-propylpyrazolo[1,5-a]pyrimidin-7-yl)piperidine-4-carboxamide hydrochloride]	459	38900	462	1.2	1.0	86600	559
CC(C)c1cnn2c(NCc3ccccc3)cc(NC3CNCC[C@]3(O)CO)nc12 (stereo partly shown) [PPDA-025]	–	10100	–	3.7	1.4	23700	–
CC(C)c1cnn2c(NCc3ccccc3)cc(N[C@@H]3CNCC[C@]3(O)CO)nc12 [PPDA-025]	106	–	77	–	–	–	285
CO[C@H]1CN[C@H](CNc2cc(NCc3ccccc3)n3ncc(C(C)C)c3n2)C1 [PPDA-029]	2840	17600	1010	–	2.8	> 100000	–
CC(C)c1cnn2c(NCc3ccccc3)cc(NC[C@@H]3C[C@@H](O)CN3)nc12 [PPDA-030]	999	20200	59	–	17	> 100000	–
CC(C)c1cnn2c(NCc3ccccc3)cc(NC[C@H]3NCC[C@@H]3O)nc12 [PPDA-031]	393	5600	473	–	0.8	20400	–
CC(C)c1cnn2c(NCc3ccccc3)cc(NC[C@H]3NC[C@H](O)[C@@H]3O)nc12 [PPDA-032]	1500	–	305	–	4.9	–	–
CC(C)c1cnn2c(NCc3ccccc3)cc(NCC3CCNCC3)nc12 [XX-01, reference compound]	–	12200	310	–	–	18700	–
CC(C)c1cnn2c(NCc3ccccc3)cc(NC[C@H]3CCCC[C@@H]3O)nc12 [XX-02, reference compound]	–	47000	687	–	–	> 100000	–
